Results as given in PubChem BioAssay AID2060885 (Molecular Pharmacology Branch, DTP, NCI, 2025).

System: NCI-H23 complex spheroids with HUVEC/MSC, viability
Experiment: Anticancer human tumor NCI-H23 cell line growth inhibition [RAS];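 note: spheroids exposed to compound for 7 days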;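 for viability, T/C: 100% = DMSO vehicle control viability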
Settings: for IC50: curve of first compound; for viability, T/C: stronger effect = lower value
Procedure, shortened: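 Multi-cell-type spheroids: tumor cells plus HUVEC endothelial cells and mesenchymal stem cells. RAS-pathway inhibitors were combined with targeted agents, each dosed in half-log steps down from clinical Cmax, or from 10 microM when Cmax was unknown.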

[1] = second compound 0.0316 µM, first compound 0.00316 µM
[2] = second compound 0.0316 µM, first compound 0.01 µM
[3] = second compound 0.0316 µM, first compound 0.0316 µM
[4] = second compound 0.0316 µM, first compound 0.1 µM
[5] = second compound 0.0316 µM, first compound 0.316 µM
[6] = second compound 0.0316 µM, first compound 1 µM
[7] = second compound 0.1 µM, first compound 0.00316 µM
[8] = second compound 0.1 µM, first compound 0.01 µM
[9] = second compound 0.1 µM, first compound 0.0316 µM
[10] = second compound 0.1 µM, first compound 0.1 µM
[11] = second compound 0.1 µM, first compound 0.316 µM
[12] = second compound 0.1 µM, first compound 1 µM
[13] = second compound 0.316 µM, first compound 0.00316 µM
[14] = second compound 0.316 µM, first compound 0.01 µM
[15] = second compound 0.316 µM, first compound 0.0316 µM
[16] = second compound 0.316 µM, first compound 0.1 µM
[17] = second compound 0.316 µM, first compound 0.316 µM
[18] = second compound 0.316 µM, first compound 1 µM
[19] = second compound 1 µM, first compound 0.00316 µM
[20] = second compound 1 µM, first compound 0.01 µM
[21] = second compound 1 µM, first compound 0.0316 µM
[22] = second compound 1 µM, first compound 0.1 µM
[23] = second compound 1 µM, first compound 0.316 µM
[24] = second compound 1 µM, first compound 1 µM
[25] = second compound 3.16 µM, first compound 0.00316 µM
[26] = second compound 3.16 µM, first compound 0.01 µM
[27] = second compound 3.16 µM, first compound 0.0316 µM
[28] = second compound 3.16 µM, first compound 0.1 µM
[29] = second compound 3.16 µM, first compound 0.316 µM
[30] = second compound 3.16 µM, first compound 1 µM
[31] = second compound 10 µM, first compound 0.00316 µM
[32] = second compound 10 µM, first compound 0.01 µM
[33] = second compound 10 µM, first compound 0.0316 µM
[34] = second compound 10 µM, first compound 0.1 µM
[35] = second compound 10 µM, first compound 0.316 µM
[36] = second compound 10 µM, first compound 1 µM

## C=CC(=O)N1CCN(c2nc(OCC3CCCN3C)nc3c(F)c(-c4nc(N)cc(C)c4C(F)(F)F)c(Cl)cc23)C(C)C1 (stereo not drawn) + C#Cc1c(F)ccc2cc(O)cc(-c3ncc4c(N5CC6CCC(C5)N6)nc(OCC56CCCN5CC(F)C6)nc4c3F)c12
Second compound 0.0316 µM
  IC50: 11.5 nM
Second compound 0.1 µM
  IC50: 19.2 nM
Second compound 0.316 µM
  IC50: 24.2 nM
Second compound 1 µM
  IC50: 13.8 nM
Second compound 3.16 µM
  IC50: 11.3 nM
Second compound 10 µM
  IC50: < 3.16 nM
[1]
  viability, T/C: 72.4%
[2]
  viability, T/C: 52.6%
[3]
  viability, T/C: 40.5%
[4]
  viability, T/C: 35.5%
[5]
  viability, T/C: 38%
[6]
  viability, T/C: 36.3%
[7]
  viability, T/C: 80.7%
[8]
  viability, T/C: 58.2%
[9]
  viability, T/C: 45.3%
[10]
  viability, T/C: 35.7%
[11]
  viability, T/C: 30.3%
[12]
  viability, T/C: 42.2%
[13]
  viability, T/C: 65.2%
[14]
  viability, T/C: 61.3%
[15]
  viability, T/C: 46.5%
[16]
  viability, T/C: 37.9%
[17]
  viability, T/C: 35%
[18]
  viability, T/C: 37.2%
[19]
  viability, T/C: 83.2%
[20]
  viability, T/C: 54.5%
[21]
  viability, T/C: 37.7%
[22]
  viability, T/C: 39.2%
[23]
  viability, T/C: 39.5%
[24]
  viability, T/C: 37.7%
[25]
  viability, T/C: 59.9%
[26]
  viability, T/C: 55.9%
[27]
  viability, T/C: 38.4%
[28]
  viability, T/C: 42.3%
[29]
  viability, T/C: 39.8%
[30]
  viability, T/C: 38.5%
[31]
  viability, T/C: 35.7%
[32]
  viability, T/C: 39.6%
[33]
  viability, T/C: 42.4%
[34]
  viability, T/C: 32.3%
[35]
  viability, T/C: 30.4%
[36]
  viability, T/C: 33.5%

## CC(=O)OC12COC1CC(O)C1(C)C(=O)C(O)C3=C(C)C(OC(=O)C(O)C(NC(=O)OC(C)(C)C)c4ccccc4)CC(O)(C(OC(=O)c4ccccc4)C21)C3(C)C (stereo not drawn) + C#Cc1c(F)ccc2cc(O)cc(-c3ncc4c(N5CC6CCC(C5)N6)nc(OCC56CCCN5CC(F)C6)nc4c3F)c12
Second compound 0.0316 µM
  IC50: < 31.6 nM
Second compound 0.1 µM
  IC50: < 31.6 nM
Second compound 0.316 µM
  IC50: < 31.6 nM
Second compound 1 µM
  IC50: < 31.6 nM
Second compound 3.16 µM
  IC50: < 31.6 nM
Second compound 10 µM
  IC50: < 31.6 nM
[3]
  viability, T/C: 30.7%
[4]
  viability, T/C: 41.2%
[5]
  viability, T/C: 37.2%
[6]
  viability, T/C: 32.2%
Second compound 0.0316 µM, first compound 3.16 µM
  viability, T/C: 47.1%
Second compound 0.0316 µM, first compound 10 µM
  viability, T/C: 62.8%
[9]
  viability, T/C: 27.8%
[10]
  viability, T/C: 36.6%
[11]
  viability, T/C: 34.6%
[12]
  viability, T/C: 30.9%
Second compound 0.1 µM, first compound 3.16 µM
  viability, T/C: 56.1%
Second compound 0.1 µM, first compound 10 µM
  viability, T/C: 71.2%
[15]
  viability, T/C: 34.1%
[16]
  viability, T/C: 35.6%
[17]
  viability, T/C: 31.3%
[18]
  viability, T/C: 32%
Second compound 0.316 µM, first compound 3.16 µM
  viability, T/C: 46.1%
Second compound 0.316 µM, first compound 10 µM
  viability, T/C: 57.2%
[21]
  viability, T/C: 27.3%
[22]
  viability, T/C: 30.5%
[23]
  viability, T/C: 32%
[24]
  viability, T/C: 23.6%
Second compound 1 µM, first compound 3.16 µM
  viability, T/C: 36.4%
Second compound 1 µM, first compound 10 µM
  viability, T/C: 46.6%
[27]
  viability, T/C: 20.1%
[28]
  viability, T/C: 21.6%
[29]
  viability, T/C: 21.2%
[30]
  viability, T/C: 23.6%
Second compound 3.16 µM, first compound 3.16 µM
  viability, T/C: 25.6%
Second compound 3.16 µM, first compound 10 µM
  viability, T/C: 39%
[33]
  viability, T/C: 17.9%
[34]
  viability, T/C: 20.7%
[35]
  viability, T/C: 16.5%
[36]
  viability, T/C: 19.1%
Second compound 10 µM, first compound 3.16 µM
  viability, T/C: 23.1%
Second compound 10 µM, first compound 10 µM
  viability, T/C: 30.5%

## CCc1c2c(nc3ccc(O)cc13)-c1cc3c(c(=O)n1C2)COC(=O)[C@]3(O)CC + C#Cc1c(F)ccc2cc(O)cc(-c3ncc4c(N5CC6CCC(C5)N6)nc(OCC56CCCN5CC(F)C6)nc4c3F)c12
Second compound 0.0316 µM
  IC50: 5.66 nM
Second compound 0.1 µM
  IC50: 4.78 nM
Second compound 0.316 µM
  IC50: 4.89 nM
Second compound 1 µM
  IC50: 2.89 nM
Second compound 3.16 µM
  IC50: 1.25 nM
Second compound 10 µM
  IC50: < 0.949 nM
Second compound 0.0316 µM, first compound 0.000949 µM
  viability, T/C: 74.6%
Second compound 0.0316 µM, first compound 0.003 µM
  viability, T/C: 75.5%
Second compound 0.0316 µM, first compound 0.00949 µM
  viability, T/C: 29.9%
Second compound 0.0316 µM, first compound 0.03 µM
  viability, T/C: 13.3%
Second compound 0.0316 µM, first compound 0.0949 µM
  viability, T/C: 9.2%
Second compound 0.0316 µM, first compound 0.3 µM
  viability, T/C: 5.86%
Second compound 0.1 µM, first compound 0.000949 µM
  viability, T/C: 87.8%
Second compound 0.1 µM, first compound 0.003 µM
  viability, T/C: 64.6%
Second compound 0.1 µM, first compound 0.00949 µM
  viability, T/C: 28.2%
Second compound 0.1 µM, first compound 0.03 µM
  viability, T/C: 14.7%
Second compound 0.1 µM, first compound 0.0949 µM
  viability, T/C: 9.07%
Second compound 0.1 µM, first compound 0.3 µM
  viability, T/C: 6.92%
Second compound 0.316 µM, first compound 0.000949 µM
  viability, T/C: 96.7%
Second compound 0.316 µM, first compound 0.003 µM
  viability, T/C: 67.8%
Second compound 0.316 µM, first compound 0.00949 µM
  viability, T/C: 25.4%
Second compound 0.316 µM, first compound 0.03 µM
  viability, T/C: 12.8%
Second compound 0.316 µM, first compound 0.0949 µM
  viability, T/C: 9.27%
Second compound 0.316 µM, first compound 0.3 µM
  viability, T/C: 5.24%
Second compound 1 µM, first compound 0.000949 µM
  viability, T/C: 86.9%
Second compound 1 µM, first compound 0.003 µM
  viability, T/C: 49.4%
Second compound 1 µM, first compound 0.00949 µM
  viability, T/C: 18.9%
Second compound 1 µM, first compound 0.03 µM
  viability, T/C: 12.2%
Second compound 1 µM, first compound 0.0949 µM
  viability, T/C: 7.17%
Second compound 1 µM, first compound 0.3 µM
  viability, T/C: 4.02%
Second compound 3.16 µM, first compound 0.000949 µM
  viability, T/C: 56.1%
Second compound 3.16 µM, first compound 0.003 µM
  viability, T/C: 30.8%
Second compound 3.16 µM, first compound 0.00949 µM
  viability, T/C: 11.7%
Second compound 3.16 µM, first compound 0.03 µM
  viability, T/C: 5.93%
Second compound 3.16 µM, first compound 0.0949 µM
  viability, T/C: 3.68%
Second compound 3.16 µM, first compound 0.3 µM
  viability, T/C: 2.2%
Second compound 10 µM, first compound 0.000949 µM
  viability, T/C: 31.7%
Second compound 10 µM, first compound 0.003 µM
  viability, T/C: 20.2%
Second compound 10 µM, first compound 0.00949 µM
  viability, T/C: 8.85%
Second compound 10 µM, first compound 0.03 µM
  viability, T/C: 5.36%
Second compound 10 µM, first compound 0.0949 µM
  viability, T/C: 3.22%
Second compound 10 µM, first compound 0.3 µM
  viability, T/C: 2.27%

## Nc1ccn(C2OC(CO)C(O)C2(F)F)c(=O)n1 (stereo not drawn) + C#Cc1c(F)ccc2cc(O)cc(-c3ncc4c(N5CC6CCC(C5)N6)nc(OCC56CCCN5CC(F)C6)nc4c3F)c12
Second compound 0.0316 µM
  IC50: 5.53 nM
Second compound 0.1 µM
  IC50: 5.82 nM
Second compound 0.316 µM
  IC50: 5.83 nM
Second compound 1 µM
  IC50: 4.97 nM
Second compound 3.16 µM
  IC50: < 3.16 nM
Second compound 10 µM
  IC50: < 3.16 nM
[1]
  viability, T/C: 79.1%
[2]
  viability, T/C: 19.3%
[3]
  viability, T/C: 9.28%
[4]
  viability, T/C: 9.72%
[5]
  viability, T/C: 8.73%
[6]
  viability, T/C: 9.82%
[7]
  viability, T/C: 86.3%
[8]
  viability, T/C: 17.8%
[9]
  viability, T/C: 8.54%
[10]
  viability, T/C: 7.52%
[11]
  viability, T/C: 10.5%
[12]
  viability, T/C: 8.63%
[13]
  viability, T/C: 88.8%
[14]
  viability, T/C: 15.8%
[15]
  viability, T/C: 7.89%
[16]
  viability, T/C: 5.29%
[17]
  viability, T/C: 6.95%
[18]
  viability, T/C: 7.88%
[19]
  viability, T/C: 74.8%
[20]
  viability, T/C: 12.1%
[21]
  viability, T/C: 4.25%
[22]
  viability, T/C: 5%
[23]
  viability, T/C: 5.26%
[24]
  viability, T/C: 7.16%
[25]
  viability, T/C: 45.2%
[26]
  viability, T/C: 5.88%
[27]
  viability, T/C: 3.82%
[28]
  viability, T/C: 2.55%
[29]
  viability, T/C: 3.3%
[30]
  viability, T/C: 3.59%
[31]
  viability, T/C: 23.2%
[32]
  viability, T/C: 5.01%
[33]
  viability, T/C: 4.01%
[34]
  viability, T/C: 2.92%
[35]
  viability, T/C: 3.19%
[36]
  viability, T/C: 3.79%
